Read-outs that look alike come from different tables or passages of the source.
Assays:
[1] = tested on: athymic mice bearing human prostate C4-2 cancer xenografts; assay type: in vivo; details: for 224Ra %ID/g: 224Ra measured 2 h after i.v. injection of the named 224Ra-solution; for %ID/g of 212Pb without 212Pb ingrowth from 224Ra: 2 h after i.v. injection of the 224Ra-solution
[2] = in man; cited from earlier work
[3] = in mice; cited from earlier work

## NC(=O)CN1CCN(CC(N)=O)CCN(CC(N)=O)C(Cc2ccc(NC(=S)NCC3CCC(C(=O)NC(Cc4ccc5ccccc5c4)C(=O)NCCCCC(NC(=O)NC(CCC(=O)O)C(=O)O)C(=O)O)CC3)cc2)CN(CC(N)=O)CC1 (centres unmarked) [NG001, p-SCN-Bn-TCMC-PSMA ligand]
[1]; 2 h after injection
  lower kidney uptake compared with [212Pb]Pb-PSMA-617: 3.5 fold

## [Ra] [radium]
[2]
  radium excreted by intestinal clearance: more than 90%
[3]
  renal clearance of radium: about 70%

## [Cl][212Pb][Cl] [[212Pb]PbCl2]
[1]; 2 h after i.v. injection of the 224Ra-solutions
  tumour-to-kidney ratio: 0.04
[1]; Femur
  224Ra %ID/g: 19.40±1.97 %ID/g
[1]; Kidneys
  %ID/g of 212Pb without 212Pb ingrowth from 224Ra: 48.47±7.57 %ID/g
[1]; Skull
  224Ra %ID/g: 19.62±1.28 %ID/g
[1]; Tumour (C4-2 xenograft)
  %ID/g of 212Pb without 212Pb ingrowth from 224Ra: 1.71±1.29 %ID/g
